Molecular target: T1, recombinant HIV-1 protease expressed in E. Coli (Human immunodeficiency virus type 1 group M subtype B, UniProt P04585)
T1 construct: Enzyme: recombinant HIV-1 protease expressed in E. Coli; purchased Bachem California, Inc. (Torrance, Calif.) H-9040; host or cells: E. coli
Assay: HIV-1 Protease Enzyme Assay (Ki), fluorimetric detection of hexapeptide substrate cleavage
Assay type: biochemical
Conditions: tight-binding competitive inhibition; 37° C., pH 5.3, final substrate concentration 40 μM, enzyme 1 to 2.5 nM
Excerpt: Biological Assays Used for the Characterization of HIV Protease Inhibitors HIV-1 Protease Enzyme Assay (Ki)
The assay is based on the fluorimetric detection of synthetic hexapeptide substrate cleavage by HIV-1 protease in a defined reaction buffer as initially described by M. V. Toth and G. R. Marshall, Int. J. Peptide Protein Res. 36, 544 (1990)
Substrate: (2-aminobenzoyl)Thr-Ile-Nle-(p-nitro)Phe-Gln-Arg
Substrate supplied by Bachem California, Inc. (Torrance, Calif.; Cat. no. H-2992)
Enzyme: recombinant HIV-1 protease expressed in E. Coli
Enzyme supplied by Bachem California, Inc. (Torrance, Calif.; Cat. no. H-9040)
Reaction buffer: • 100 mM ammonium acetate, pH 5.3 • 1 M sodium chloride • 1 mM ethylendiaminetetraacetic acid • 1 mM dithiothreitol • 10% dimethylsulfoxide
Assay Protocol for the Determination of Inhibition Constant Ki:
• 1. Prepare series of solutions containing identical amount of the enzyme (1 to 2.5 nM) and a tested inhibitor at different concentrations in the reaction buffer • 2. Transfer the solutions (190 uL each) into a white 96-well plate • 3. Preincubate for 15 min at 37° C. • 4. Solubilize the substrate in 100% dimethylsulfoxide at a concentration of 800 μM. Start the reaction by adding 10 μL of 800 μM substrate into each well (final substrate concentration of 40 μM) • 5. Measure the real-time reaction kinetics at 37° C. by using Gemini 96-well plate fluorimeter (Molecular Devices, Sunnyvale, Calif.) at λ(Ex)=330 nm and λ(Em)=420 nm • 6. Determine initial velocities of the reactions with different inhibitor concentrations and calculate Ki (in picomolar concentration units) value by using EnzFitter program (Biosoft, Cambridge, U.K.) according to an algorithm for tight-binding competitive inhibition described by Ermolieff J., Lin X., and Tang J., Biochemistry 36, 12364 (1997)

Row | Structure (SMILES) | Ki [nM]
1 | COC(=O)NC(C(=O)NN(Cc1ccc(OCc2ccoc2)cc1)C[C@H](O)[C@H](Cc1ccc(OC)cc1)NC(=O)O[C@H]1CO[C@H]2OCC[C@H]21)C(C)(C)C (some centres unmarked) [Example V] | < 0.03
2 | COC(=O)NC(C(=O)NN(Cc1ccc(-c2ccncc2)cc1)C[C@H](O)[C@H](Cc1ccc(OC)cc1)NC(=O)O[C@H]1CO[C@H]2OCC[C@H]21)C(C)(C)C (some centres unmarked) [Example Q] | < 0.03
3 | Cc1cccc(C)c1OCC(=O)NN(Cc1ccc(-c2ccccn2)cc1)C[C@H](O)[C@H](Cc1ccccc1)NC(=O)O[C@H]1CO[C@H]2OCC[C@H]21 [Example AN] | < 0.03
4 | CC(C)(C)C(NC(=O)C(F)(F)F)C(=O)NN(Cc1ccc(-c2ccccn2)cc1)C[C@H](O)[C@H](Cc1ccccc1)NC(=O)O[C@H]1CO[C@H]2OCC[C@H]21 (some centres unmarked) [Example N] | < 0.03
5 | COC(=O)NC(C(=O)NN(Cc1ccc(OCc2ccncc2)cc1)C[C@H](O)[C@H](Cc1ccc(OC)cc1)NC(=O)O[C@H]1CO[C@H]2OCC[C@H]21)C(C)(C)C (some centres unmarked) [Example T] | < 0.03
6 | COC(=O)NC(C(=O)NN(Cc1ccc(-c2ccccn2)cc1)C[C@H](O)[C@H](Cc1ccccc1)NC(=O)O[C@H]1C(=O)OCC1(C)C)C(C)(C)C (some centres unmarked) [Example C] | < 0.03
7 | CC(C)(C)C(NC(=O)OCc1cscn1)C(=O)NN(Cc1ccc(-c2ccccn2)cc1)C[C@H](O)[C@H](Cc1ccccc1)NC(=O)O[C@H]1CO[C@H]2OCC[C@H]21 (some centres unmarked) [Example M] | < 0.03
8 | CC(C)OC(=O)NC(C(=O)NN(Cc1ccc(-c2ccccn2)cc1)C[C@H](O)[C@H](Cc1ccccc1)NC(=O)O[C@H]1CO[C@H]2OCC[C@H]21)C(C)(C)C (some centres unmarked) [Example J] | < 0.03

Source: patent publication US20090306112A1, “ANTIVIRAL PROTEASE INHIBITORS” (Gilead Sciences, Inc., priority 2006, published 2009)
